Assay results published in patent US6936630B2, “Substituted 1-aryl-3-heteroaryl-thioureas and substituted 1-aryl-3-heteroaryl-isothioureas as antiatherosclerotic agents” (Wyeth, priority 1997, dated 2005).

Columns and labels:
[1] = tested on: serum HDL cholesterol; assay: in vivo test procedure measuring elevation of HDL cholesterol levels in cholesterol/cholic acid-fed rats; parameters: species or system Male Sprague-Dawley rats; conditions: rats fed diet with 0.25% cholic acid and 1.0% cholesterol, 100 mg/kg/day in diet for 8 days, serum HDL cholesterol by FPLC; for change in vivo at 100 mg/kg/day: Rattus norvegicus, feed or water, 192 h, read-out: HDL Cholesterol Level Increase (%)
Experimental: Representative compounds according to the present invention were evaluated in an in vivo standard pharmacological test procedure which measured the ability of the compounds to elevate HDL cholesterol levels. The following describes the procedure used and results obtained. Male Sprague-Dawley rats weighing 200-225 g were housed two per cage and fed Purina Rodent Chow Special Mix 5001-S supplemented with 0.25% cholic acid and 1.0% cholesterol and water ad libitum for 8 days. Each test substance was administered to a group of six rats fed the same diet with the test diet mixed in as 0.005-0.1% of the total diet. Body weight and food consumption were recorded prior to diet administration and at termination. The test substances were administered at a dosage of 100 mg/kg/day.
At termination, blood was collected from anesthetized rats and the serum was separated by centrifugation. Total serum cholesterol was assayed using the Sigma Diagnostics enzymatic kit for the determination of cholesterol, Procedure No. 352, modified for use with ninety-six well microtiter plates. After reconstitution with water the reagent contains 300 U/l cholesterol oxidase, 100 U/l cholesterol esterase, 1000 U/l horse radish peroxidase, 0.3 mmoles/l 4-aminoantipyrine and 30.0 mmoles/l p-hydroxybenzene sulfonate in a pH 6.5 buffer. In the reaction, cholesterol was oxidized to produce hydrogen peroxide which was used to form a quinoneimine dye. The concentration of dye formed was measured spectrophotometrically by absorbance at 490 nm after incubation at 25° C. for 30 minutes. The concentration of cholesterol was determined for each serum sample relative to a commercial standard from Sigma.
HDL cholesterol concentrations in serum were determined by separation of lipoprotein classes by fast protein liquid chromatography (FPLC) by a modification of the method of Kieft et al., J. Lipid Res., 32 (1991), 859-866. Using this methodology, […] of serum was injected onto Superose 12 and Superose 6 (available from Pharmacia), in series, with a column buffer of 0.05 M Tris (2-amino-2-hydroxymethyl-1,3-propanediol) and 0.15 M sodium chloride at a flow rate of 0.5 mL/min. The eluted sample was mixed on line with Boehringer-Mannheim cholesterol reagent pumped at 0.2 mL/min. The combined eluents were mixed and incubated on line through a knitted coil (available from Applied Biosciences) maintained at a temperature of 45° C. The eluent was monitored by measuring absorbance at 490 nm and gave a continous absorbance signal proportional to the cholesterol concentration. The relative concentration for each lipoprotein class was calculated as the percent of total absorbance. HDL cholesterol concentration in serum, was calculated as the percent of total cholesterol as determined by FPLC multiplied by the total serum cholesterol concentration.
Test compounds were administered at a dose of 100 mg/kg for 8 days.

Structure (SMILES) | change in vivo at 100 mg/kg/day [1] | melting point | HDL Cholesterol Level Increase (%) [1]
Cc1ccc(Cl)cc1NC(=S)Nc1nccs1 [Example 1, 1-(5-Chloro-2-methyl-phenyl)-3-(thiazol-2-yl)-thiourea] | 65% | 197 to 198 °C | 
Cc1ccc(Cl)cc1NC(=S)Nc1nc2ccccc2s1 [Example 2, 1-(Benzothiazol-2-yl)-3-(5-chloro-2-methyl-phenyl)-thiourea] | 6% |  | 
Cc1ccc(Cl)cc1NC(=S)Nc1nc2ccc3ccccc3c2s1 [Example 3, 1-(5-Chloro-2-methyl-phenyl)-3-(naphtho[2,1-d]thiazol-2-yl)-thiourea] | 0.3% |  | 
Cc1coc(NC(=S)Nc2cc(Cl)ccc2C)n1 [Example 4, 1-(5-Chloro-2-methyl-phenyl)-3-(4-methyl-oxazol-2-yl)-thiourea] | 158% | 207 to 208 °C | 
Cc1nnc(NC(=S)Nc2cc(Cl)ccc2C)s1 [Example 5, 1-(5-Chloro-2-methyl-phenyl)-3-(5-methyl-[1,3,4]thiadiazol-2-yl)-thiourea] | 69% |  | 
Cc1ccc(Cl)cc1NC(=S)Nc1ccn(C)n1 [Example 6, 1-(5-Chloro-2-methyl-phenyl)-3-(1-methyl-1H-pyrazol-3-yl)-thiourea] | -11% | 217 to 218 °C | 
Cc1ccc(Cl)cc1NC(=S)Nc1cc[nH]n1 [Example 7, 1-(5-Chloro-2-methyl-phenyl)-3-(1H-pyrazol-3-yl)-thiourea] | 97% | 221 to 222 °C | 
Cc1ccc(Cl)cc1NC(=S)Nc1c(C)nn(C)c1C [Example 8, 1-(5-Chloro-2-methyl-phenyl)-3-(1,3,5-trimethyl-1H-pyrazol-4-yl)-thiourea] | 110% | 176 to 177 °C | 
Cc1csc(NC(=S)Nc2cc(Cl)ccc2C)n1 [Example 9, 1-(5-Chloro-2-methyl-phenyl)-3-(4-methyl-thiazol-2-yl)-thiourea] | 79% | 188 °C | 
Cc1ccc(Cl)cc1NC(=S)Nc1nc(C)c(C)s1 [Example 10, 1-(5-Chloro-2-methyl-phenyl)-3-(4,5-dimethyl-thiazol-2-yl)-thiourea] | 41% | 188 to 189 °C | 
CCOC(=O)Cc1csc(NC(=S)Nc2cc(Cl)ccc2C)n1 [Example 11, {2-[3-(5-Chloro-2-methyl-phenyl)-thioureido]-thiazol-4-yl}-acetic acid ethyl ester] | 2% | 177 to 179 °C | 
Cc1cc(NC(=S)Nc2cc(Cl)ccc2C)sn1 [Example 12, 1-(5-Chloro-2-methyl-phenyl)-3-(3-methyl-isothiazol-5-yl)-thiourea] | 134% | 187 to 188 °C (dec.) | 
Cc1nc2cc(NC(=S)Nc3cc(Cl)ccc3C)ccc2s1 [Example 13, 1-(5-Chloro-2-methyl-phenyl)-3-(2-methyl-benzothiazol-5-yl)-thiourea] | 36% | 173 to 174 °C | 
CCc1nnc(NC(=S)Nc2cc(Cl)ccc2C)s1 [Example 14, 1-(5-Chloro-2-methyl-phenyl)-3-(5-ethyl-[1,3,4]thiadiazol-2-yl)-thiourea] | 90% |  | 
Cc1cccc(Cl)c1NC(=S)Nc1c(C)nn(C)c1C [Example 15, 1-(2-Chloro-6-methyl-phenyl)-3-(1,3,5-trimethyl-1H-pyrazol-4-yl)-thiourea] | 58% | 201 to 202 °C | 
Cc1cc(Cl)ccc1NC(=S)Nc1c(C)nn(C)c1C [Example 16, 1-(4-Chloro-2-methyl-phenyl)-3-(1,3,5-trimethyl-1H-pyrazol-4-yl)-thiourea 0.12 solvate with acetic acid ethyl ester] |  |  | 104%
Cc1coc(NC(=S)Nc2ccc(Cl)cc2C)n1 [Example 17, 1-(4-Chloro-2-methyl-phenyl)-3-(4-methyl-oxazol-2-yl)-thiourea] | 134% | 214 °C (dec.) | 
Cc1coc(NC(=S)Nc2c(C)cccc2Cl)n1 [Example 18, 1-(2-Chloro-6-methyl-phenyl)-3-(4-methyl-oxazol-2-yl)-thiourea] | 193% | 222 °C (dec.) | 
CCN(C(=S)Nc1cc(Cl)ccc1C)c1c(C)nn(C)c1C [Example 19, 3-(5-Chloro-2-methyl-phenyl)-1-ethyl-1-(1,3,5-trimethyl-1H-pyrazol-4-yl)-thiourea] | 79% | 144 to 145 °C | 
CS/C(=N/c1c(C)nn(C)c1C)Nc1cc(Cl)ccc1C [Example 20, (E)-1-(5-Chloro-2-methyl-phenyl)-2-methyl-3-(1,3,5-trimethyl-1H-pyrazol-4-yl)-isothiourea] | 35% | 134 to 135 °C | 
CCN(C(=Nc1cc(Cl)ccc1C)SC)c1c(C)nn(C)c1C.Cl [Example 21, 3-(5-Chloro-2-methyl-phenyl)-1-ethyl-2-methyl-1-(1,3,5-trimethyl-1H-pyrazol-4-yl)-isothiourea 1:1 salt with hydrochloric acid] |  |  | 29%
